Reference: patent US11179412B2, “Methods of treating conditions involving elevated inflammatory response” (University of Pittsburgh—Of the Commonwealth System of …, priority 2017, dated 2021)
Where a name gives a salt, the structure may show the parent alone.

Assays:
[1] = system: STING signaling (TBK1, IRF3, p65, ALK, EGFR, AKT phosphorylation) in iBMDMs; assay: Western blot of STING pathway protein phosphorylation, iBMDMs; type: cell-based, mouse; settings: 16 hours, 10 μM
Experimental: (§1) For immunoblotting, cells were lysed in Cell Lysis Buffer (#9803, Cell Signaling Technology) with protease inhibitor cocktail (Promega), phosphatase inhibitor cocktail (Sigma), and 1 mM Na3VO4 (70). Cleared lysates were resolved by SDS-PAGE (#3450124, Bio-Rad) and then transferred onto PVDF membranes (#1704273, Bio-Rad). The membranes were blocked with Tris-buffered saline Tween 20 (TBST) containing 5% skim milk for 1 h at room temperature and then incubated with the indicated primary antibodies (1:1000-1:5000) overnight at 4° C. After being washed with TBST, the membranes were incubated with an HRP-linked anti-mouse IgG secondary antibody (#7076, Cell Signaling Technology) or HRP-linked anti-rabbit IgG secondary antibody (#7074, Cell Signaling Technology) for 1 h at room temperature. The membranes were washed three times in TBST and then visualized and analyzed with a ChemiDoc Touch Imaging System (#1708370, Bio-Rad). The intensities of bands were analyzed with Image Lab software.

[2] = system: STING signaling (TBK1, IRF3, p65, ALK, EGFR, AKT phosphorylation) in RAW264.7 cells; assay: Western blot of STING pathway protein phosphorylation, RAW264.7; type: cell-based, mouse; settings: 16 hours, 10 μM
Experimental: as §1

[3] = system: STING signaling (TBK1, IRF3, p65, ALK, EGFR, AKT phosphorylation) in THP1 cells; assay: Western blot of STING pathway protein phosphorylation, THP1; type: cell-based, human; settings: 16 hours, 10 μM
Experimental: as §1

[4] = system: STING activation (IFNβ release) in iBMDMs; assay: IFNβ release ELISA after STING ligand (or LPS) stimulation, iBMDMs; type: cell-based, mouse
Procedure, shortened: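 iBMDMs were stimulated with a STING ligand such as 3′3′-cGAMP, or with LPS. Secreted IFNβ in culture medium was measured by commercial mouse or human IFNβ ELISA.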

[5] = 3′3′-cGAMP or c-di-AMP 10 μg/ml
[6] = iBMDMs, 3′3′-cGAMP 10 μg/ml, 16 hours, compound 10 μM

Molecule | fold increase in IFN-β release [4, 6] [fold] | also measured
CC(C)NC[C@@H](C(=O)N1CCN(c2ncnc3c2[C@H](C)C[C@H]3O)CC1)c1ccc(Cl)cc1 [GDC-0068] | 0.86 | STING ligand-induced phosphorylation of TBK1, IRF3, and p65 [1, 5]: diminished; 3′3′-cGAMP- or c-di-AMP-induced phosphorylation of ALK, EGFR, and AKT ([1]; ligand 10 μg/ml): only blocked the phosphorylation of AKT, but not ALK or EGFR; STING ligand-induced phosphorylation of TBK1, IRF3, and p65 [2, 5]: diminished; 3′3′-cGAMP- or c-di-AMP-induced phosphorylation of ALK, EGFR, and AKT ([2]; ligand 10 μg/ml): only blocked the phosphorylation of AKT, but not ALK or EGFR; STING ligand-induced phosphorylation of TBK1, IRF3, and p65 [3, 5]: diminished; 3′3′-cGAMP- or c-di-AMP-induced phosphorylation of ALK, EGFR, and AKT ([3]; ligand 10 μg/ml): only blocked the phosphorylation of AKT, but not ALK or EGFR
C[C@@H]1CCN(C(=O)CC#N)C[C@@H]1N(C)c1ncnc2[nH]ccc12 [Tofacitinib (CP-690550, Tasocitinib), Tofacitinib] | 1.49 | 
c1ccc(CC2=NCCN2)cc1 [Tolazoline HCl] | 1.46 | 
Cc1c(Cl)cccc1Nc1ccccc1C(=O)O [Tolfenamic Acid] | 2.19 | 
Cc1ccccc1C(=O)Nc1ccc(C(=O)N2CCCC(O)c3cc(Cl)ccc32)c(C)c1 (centres unmarked) [Tolvaptan] | 1.20 | 
CCOC(=O)N1c2ccc(C(F)(F)F)cc2[C@@H](N(Cc2cc(C(F)(F)F)cc(C(F)(F)F)c2)C(=O)OC)C[C@H]1CC [Torcetrapib] | 3.84 | 
CN(C)CCOc1ccc(/C(=C(/CCCl)c2ccccc2)c2ccccc2)cc1 [Toremifene Citrate] | 0.19 | 
Cn1c(=O)cc(N2CCC[C@@H](N)C2)n(Cc2cc(F)ccc2C#N)c1=O [Trelagliptin] | 1.80 | 
Nc1nc(N)c2nc(-c3ccccc3)c(N)nc2n1 [Triamterene] | 0.99 | 
CC(/C=C/C(=O)NO)=C\[C@@H](C)C(=O)c1ccc(N(C)C)cc1 [Trichostatin A (TSA), Trichostatin A] | 0.39 | 
CCC(COC(=O)c1cc(OC)c(OC)c(OC)c1)(c1ccccc1)N(C)C (centres unmarked) [Trimebutine] | 0.30 | 
O=C(O[C@H]1C[C@H]2CC[C@@H](C1)[N+]21CCCC1)C(O)(c1ccccc1)c1ccccc1 [Trospium chloride] | 0.76 | 
O=C(CCCCCCC(=O)Nc1ccc([C@H]2O[C@@H](CSc3nc(-c4ccccc4)c(-c4ccccc4)o3)C[C@@H](c3ccc(CO)cc3)O2)cc1)NO [Tubacin] | 1.05 | 
CC(C)(C)c1cc(/C=C(\C#N)C(N)=S)cc(C(C)(C)C)c1O [Tyrphostin AG 879] | 1.99 | 
CCO.N#CC(=C(/N)Sc1ccccc1N)/C(C#N)=C(\N)Sc1ccccc1N [U0126-EtOH] | 0.70 | 
O=C(c1cncc(Br)c1)N1CCC(N2CCCC2)CC1 [UNC669] | 1.99 | 
NC(=O)c1cccc(-c2cccc(OC(=O)NC3CCCCC3)c2)c1 [URB597] | 2.07 | 
CS(=O)(=O)c1ccc(-c2cnc(N)c(C(=O)Nc3ccccc3)n2)cc1 [VE-821] | 0.45 | 
CNCc1ccc(-c2cc(-c3nc(-c4ccc(S(=O)(=O)C(C)C)cc4)cnc3N)on2)cc1 [VE-822] | 0.86 | 
Cc1cc(Nc2cc(N3CCN(C)CC3)nc(Sc3ccc(NC(=O)C4CC4)cc3)n2)[nH]n1 [VX-680 (Tozasertib, MK-0457), Tozasertib] | 0.91 | 
O=c1ncn2nc(Sc3ccc(F)cc3F)ccc2c1-c1c(Cl)cccc1Cl [VX-745] | 6.18 | 

Molecule | fold increase in IFN-β release [4, 6] [fold] | also measured
CCO[C@@H]1OC(=O)C[C@@H]1NC(=O)[C@@H]1CCCN1C(=O)[C@@H](NC(=O)c1ccc(N)c(Cl)c1)C(C)(C)C [VX-765] | 1.67 | 
Cc1ccc(NC(=O)C2(c3ccc4c(c3)OC(F)(F)O4)CC2)nc1-c1cccc(C(=O)O)c1 [VX-809 (Lumacaftor), Lumacaftor] | 1.07 | 
COc1cc2c(Nc3ccc(Br)cc3F)ncnc2cc1OCC1CCN(C)CC1 [Vandetanib (ZD6474), Vandetanib] | 0.25 | 
CCc1c(C(=O)C(N)=O)c2c(OCC(=O)O)cccc2n1Cc1ccccc1 [Varespladib (LY315920), Varespladib] |  | fold increase in IFN-β release ([4]; 16 h, 10 µM): 1.18 fold
C[C@]1(c2nc3c(C(N)=O)cccc3[nH]2)CCCN1 [Veliparib (ABT-888), Veliparib] | 0.66 | 
CCCS(=O)(=O)Nc1ccc(F)c(C(=O)c2c[nH]c3ncc(-c4ccc(Cl)cc4)cc23)c1F [Vemurafenib (PLX4032, RG7204), Vemurafenib] | 0.59 | 
N#C[C@@H]1CCCN1C(=O)CNC12CC3CC(CC(O)(C3)C1)C2 [Vildagliptin (LAF-237), Vildagliptin] | 1.04 | 
C[C@@H](c1ncncc1F)[C@](O)(Cn1cncn1)c1ccc(F)cc1F [Voriconazole] | 2.35 | 
c1ccc(NCc2ccc(CNc3ccccn3)cc2)nc1 [WZ811] | 1.67 | 
C=CC(=O)Nc1cccc(Oc2nc(Nc3ccc(N4CCN(C)CC4)cc3OC)ncc2Cl)c1 [WZ4002] | 1.42 | 
CCC(=O)Nc1cccc(Oc2nc(Nc3ccc(N4CCN(C)CC4)cc3OC)ncc2Cl)c1 [WZ4003] | 0.12 | 
Cc1cc(-c2ccc(CC(=O)Nc3ccc(-c4cccnc4)cc3)cc2)ccn1 [Wnt-059 (C59)] | 0.13 | 
Oc1nc(-c2ccc(C(F)(F)F)cc2)nc2c1CSCC2 [XAV-939] | 1.00 | 
CC(C)OC(=O)C1=CN(C(=O)c2ccc(F)c(F)c2)CC(C)(C)c2c1[nH]c1ccccc21 [XL335] | 0.26 | 
CCOc1cc(N2CCC(O)CC2)ccc1Nc1ncc2c(n1)N(C)c1ccccc1C(=O)N2C [XMD8-92] | 2.38 | 
COCCn1c2c([n+](Cc3cnccn3)c1C)C(=O)c1ccccc1C2=O [YM155 (Sepantronium Bromide), Sepantronium Bromide] | 0.30 | 
C[C@H](NC(=O)Cc1cc(F)cc(F)c1)C(=O)N[C@@H]1C(=O)N(C)c2ccccc2-c2ccccc21 [YO-01027] | 1.74 | 
Cc1cc(C)nc(NS(=O)(=O)c2ccc(NC(=S)NC(=O)COc3ccc(Br)cc3Cl)cc2)n1 [ZCL278] | 2.52 | 
COc1cc2ncnc(Nc3ccc(Cl)cc3F)c2cc1OC [ZM 306416] | 0.14 | 
COc1cc2c(Nc3ccc(NC(=O)c4ccccc4)cc3)ncnc2cc1OCCCN1CCOCC1 [ZM 447439] | 0.69 | 
O=c1ncccn1[C@@H]1O[C@H](CO)[C@@H](O)[C@H]1O [Zebularine] | 1.50 | 

Molecule | fold increase in IFN-β release [4, 6] [fold] | also measured
COc1nc(C)cnc1NS(=O)(=O)c1cccnc1-c1ccc(-c2nnco2)cc1 [Zibotentan (ZD4054), Zibotentan] | 1.17 | 
O[C@@H](COc1cccc2ncccc12)CN1CCN([C@@H]2c3ccccc3[C@@H]3[C@H](c4ccccc42)C3(F)F)CC1 [Zosuquidar (LY335979) 3HCl, Zosuquidar] | 4.10 | 
(−)-MK 801 Maleate | 4.76 | 
(−)-Parthenolide | 0.16 | 
HO-3867 | 0.52 | 
HSP990 (NVP-HSP990) | 0.26 | 
IM-12 | 2.17 | 
Ifenprodil Tartrate | 1.71 | 
KX2-391 | 0.77 | 
Maraviroc | 2.50 | 
OG-L002 | 1.06 | 
PF-04620110 | 3.43 | 
Pifithrin-μ | 0.16 | 
S3I-201 | 0.88 | 
SN-38 | 1.72 | 
SNS-314 Mesylate | 1.10 | 
Tropicamide | 2.09 | 
VU 0357121 | 1.49 | 
VU 0364439 | 1.60 | 
VU 0364770 | 2.00 | 
